Source: US7964531B2, “3-phenoxy-4-pyridazinol derivatives and herbicidal composition containing the same” (Mitsui Chemicals Agro, Inc., priority 2001, dated 2011)

Experiments:
[1] = tested on: transplanted paddy-field rice; test: Test Example 4: crop injury against transplanted paddy-field rice; format: in vivo; details: after 25 days
Method: (§1) Paddy filed soil was filled in 1/5000 are Wagner pot, seeds of barnyardgrass (Echinochloa oryzicola Vasing.), Scirpus joncoides and annual broad-leaved weeds (Lindernia spp. and Rotala indica) which are awaken from dormancy were mixed at the surface layer of 1 cm. Also, tubers of Cyperus serotinus, Sagittaria pygmaea and Eleocharis kuroguwai which are awaken from dormancy were planted, and further seedlings of paddy-field rice at 2.2-leaf stage were transplanted and they were grown under the flooded condition in a greenhouse. After 3 days from the transplanting, a predetermined chemical dosage of the wettable powder prepared in accordance with Preparation example 5 was diluted with water, and applied to the pot. After 25 days, herbicidal effects and crop injury against transplanted paddy-field rice were judged according to the following judgment standard, and the results were shown in Table 5. Incidentally, “-” in the table means a composition containing no effective ingredient.
(§2) Judgment Standard • 0: Growth-inhibition rate; 0 to 15% • 1: Growth inhibition rate; 16 to 35% • 2: Growth inhibition rate; 36 to 55% • 3: Growth inhibition rate; 56 to 75% • 4: Growth inhibition rate; […] • 5: Growth inhibition rate; 96 to 100%.

[2] = tested on: barnyardgrass (Echinochloa oryzicola Vasing.); test: Test Example 4: herbicidal effects of mixed wettable powder, paddy-field pot test; format: in vivo; details: after 25 days
Method: as §1, §2

Scirpus joncoides [3] = test: as above; format: in vivo; details: after 25 days
Method: as §1, §2

Sagittaria pygmaea = test: as above; format: in vivo; details: after 25 days
Method: as §1, §2

[4] = tested on: annual broad-leaved weeds (Lindernia spp. and Rotala indica); test: as above; format: in vivo; details: after 25 days
Method: as §1, §2

Eleocharis kuroguwai = test: as above; format: in vivo; details: after 25 days
Method: as §1, §2

Cyperus serotinus [5] = test: as above; format: in vivo; details: after 25 days
Method: as §1, §2

[6] = tested on: transplanted paddy-field rice; test: Test Example 1: crop injury against transplanted paddy-field rice; format: in vivo; details: wettable powder applied 3 days after transplanting, judged after 25 days
Method in brief: (§3)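 First, paddy soil was potted and seeded at the surface layer with non-dormant weed seeds; germinated Cyperus serotinus tubers were planted and 2.2-leaf rice transplanted. Three days later, diluted wettable powder was applied under flooding. Inhibition was rated 0–5 after 25 days.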

[7] = tested on: barnyardgrass (Echinochloa oryzicola Vasing.); test: Test Example 1: herbicidal effects, paddy-field pot test; format: in vivo; details: wettable powder applied 3 days after transplanting, judged after 25 days
Method in brief: as §3

Scirpus joncoides [8] = test: as above; format: in vivo; details: wettable powder applied 3 days after transplanting, judged after 25 days
Method in brief: as §3

[9] = tested on: annual broad-leaved weeds (Lindernia spp., Rotala indica); test: as above; format: in vivo; details: wettable powder applied 3 days after transplanting, judged after 25 days
Method in brief: as §3

Cyperus serotinus [10] = test: as above; format: in vivo; details: wettable powder applied 3 days after transplanting, judged after 25 days
Method in brief: as §3

[11] = derivative 5 g/a, no second compound
[12] = derivative 10 g/a, no second compound

SMILES	Crop injury against transplanted rice [1, 11]	Crop injury against transplanted rice [1, 12]	Herbicidal effects Barnyard grass [2, 11]	Herbicidal effects Barnyard grass [2, 12]	Herbicidal effects Scirpus joncoides (Scirpus joncoides [3]; [11])	Herbicidal effects Scirpus joncoides (Scirpus joncoides [3]; [12])	Herbicidal effects Sagittaria pygmaea (Sagittaria pygmaea; [11])	Herbicidal effects Sagittaria pygmaea (Sagittaria pygmaea; [12])	Herbicidal effects Broad leaf [4, 11]	Herbicidal effects Broad leaf [4, 12]	Herbicidal effects Eleocharis kuroguwai (Eleocharis kuroguwai; [11])	Herbicidal effects Eleocharis kuroguwai (Eleocharis kuroguwai; [12])	Herbicidal effects Cyperus serotinus (Cyperus serotinus [5]; [11])	Herbicidal effects Cyperus serotinus (Cyperus serotinus [5]; [12])	other results
N#CC1CC1c1ccccc1Oc1nnc(Cl)cc1O (centres unmarked) [Compound No. 226, 2-{2-[(6-Chloro-4-hydroxy-3-pyridazinyl)oxy]phenyl}-cyclopropanecarbonitrile]	0 (Growth-inhibition rate; 0 to 15%)	0 (Growth-inhibition rate; 0 to 15%)	3 (Growth inhibition rate; 56 to 75%)	3 (Growth inhibition rate; 56 to 75%)	4 (Growth inhibition rate; 7.6 to 95%)	5 (Growth inhibition rate; 96 to 100%)	5 (Growth inhibition rate; 96 to 100%)	5 (Growth inhibition rate; 96 to 100%)	5 (Growth inhibition rate; 96 to 100%)	5 (Growth inhibition rate; 96 to 100%)	1 (Growth inhibition rate; 16 to 35%)	2 (Growth inhibition rate; 36 to 55%)	5 (Growth inhibition rate; 96 to 100%)	5 (Growth inhibition rate; 96 to 100%)	melting point: 203 to 207 °C
Oc1cc(Cl)nnc1Oc1ccccc1C1CC1 [Example 6]	0 (Growth-inhibition rate; 0 to 15%)	0 (Growth-inhibition rate; 0 to 15%)	1 (Growth inhibition rate; 16 to 35%)	2 (Growth inhibition rate; 36 to 55%)	5 (Growth inhibition rate; 96 to 100%)	5 (Growth inhibition rate; 96 to 100%)	5 (Growth inhibition rate; 96 to 100%)	5 (Growth inhibition rate; 96 to 100%)	5 (Growth inhibition rate; 96 to 100%)	5 (Growth inhibition rate; 96 to 100%)	2 (Growth inhibition rate; 36 to 55%)	3 (Growth inhibition rate; 56 to 75%)	5 (Growth inhibition rate; 96 to 100%)	5 (Growth inhibition rate; 96 to 100%)	Crop injury against transplanted rice ([6]; chemical dosage 10 g/a): 0 (Growth inhibition rate; 0 to 10%); Crop injury against transplanted rice ([6]; chemical dosage 20 g/a): 0 (Growth inhibition rate; 0 to 10%); Herbicidal effects Barnyard grass ([7]; chemical dosage 10 g/a): 2 (Growth inhibition rate; 31 to 50%); Herbicidal effects Barnyard grass ([7]; chemical dosage 20 g/a): 3 (Growth inhibition rate; 51 to 70%); Herbicidal effects Scirpus joncoides (Scirpus joncoides [8]; chemical dosage 10 g/a): 5 (Growth inhibition rate; 91 to 100%); Herbicidal effects Scirpus joncoides (Scirpus joncoides [8]; chemical dosage 20 g/a): 5 (Growth inhibition rate; 91 to 100%); Herbicidal effects Broad leaf ([9]; chemical dosage 10 g/a): 5 (Growth inhibition rate; 91 to 100%); Herbicidal effects Broad leaf ([9]; chemical dosage 20 g/a): 5 (Growth inhibition rate; 91 to 100%); Herbicidal effects Cyperus serotinus (Cyperus serotinus [10]; chemical dosage 10 g/a): 5 (Growth inhibition rate; 91 to 100%); Herbicidal effects Cyperus serotinus (Cyperus serotinus [10]; chemical dosage 20 g/a): 5 (Growth inhibition rate; 91 to 100%)
Cc1nn(C)c(OCC(=O)c2ccccc2)c1C(=O)c1ccc(Cl)cc1Cl [Compound B, 2-[4-(2,4-dichlorobenzoyl)-1,3-dimethylpyrazol-5-yloxy]acetophenone, reference compound]	–	–	–	–	–	–	–	–	–	–	–	–	–	–	Crop injury against transplanted rice ([1]; second compound alone 5 g/a): 0 (Growth-inhibition rate; 0 to 15%); Crop injury against transplanted rice ([1]; second compound alone 30 g/a): 0 (Growth-inhibition rate; 0 to 15%); Herbicidal effects Barnyard grass ([2]; second compound alone 5 g/a): 3 (Growth inhibition rate; 56 to 75%); Herbicidal effects Barnyard grass ([2]; second compound alone 30 g/a): 5 (Growth inhibition rate; 96 to 100%); Herbicidal effects Scirpus joncoides (Scirpus joncoides [3]; second compound alone 5 g/a): 3 (Growth inhibition rate; 56 to 75%); Herbicidal effects Scirpus joncoides (Scirpus joncoides [3]; second compound alone 30 g/a): 4 (Growth inhibition rate; 7.6 to 95%); Herbicidal effects Sagittaria pygmaea (Sagittaria pygmaea; second compound alone 5 g/a): 4 (Growth inhibition rate; 7.6 to 95%); Herbicidal effects Sagittaria pygmaea (Sagittaria pygmaea; second compound alone 30 g/a): 5 (Growth inhibition rate; 96 to 100%); Herbicidal effects Broad leaf ([4]; second compound alone 5 g/a): 4 (Growth inhibition rate; 7.6 to 95%); Herbicidal effects Broad leaf ([4]; second compound alone 30 g/a): 5 (Growth inhibition rate; 96 to 100%); Herbicidal effects Eleocharis kuroguwai (Eleocharis kuroguwai; second compound alone 5 g/a): 0 (Growth-inhibition rate; 0 to 15%); Herbicidal effects Eleocharis kuroguwai (Eleocharis kuroguwai; second compound alone 30 g/a): 2 (Growth inhibition rate; 36 to 55%); Herbicidal effects Cyperus serotinus (Cyperus serotinus [5]; second compound alone 5 g/a): 2 (Growth inhibition rate; 36 to 55%); Herbicidal effects Cyperus serotinus (Cyperus serotinus [5]; second compound alone 30 g/a): 4 (Growth inhibition rate; 7.6 to 95%)
